From patent US10413583B2, “Synthetic substrates for enzymes that catalyze reactions of modified cysteines and related methods” (The University of Chicago, priority 2016, dated 2019)
Entries after “also recorded” stand apart in the source; their conditions may differ.

Assays:
HeLa cells = assay: Epifluorescent imaging of DPP-5 with PalmB in HeLa cells; format: cell-based, human
Experimental: 250,000 HEK293T cells/well, 120,000 HeLa cells/well, or 100,000 HepG2 cells/well were plated in 700 μL DMEM glutamax (10% FBS+1% P/S) into 4-well chambered imaging dish (D35C4-20-1.5-N, Cellvis, Mountain View, Calif., United States of America), which were precoated with 5 μg Poly-D-lysine (30-70 KDa, Alfa Aesar, Haverhill, Mass., United States of America) for 2 h. After 20-24 h, the media was replaced by 1 μM Hoechst 33342 and DMSO/5 μM PalmB in 400 μL DMEM glutamax. After 30 min of incubation at 37° C., the cells were washed with 400 μL of Live Cell Imaging Solution and replaced by 1 μM DPP-5 with DMSO or 5 μM of PalmB in Live Cell Imaging Solution. […] For data analysis, the average fluorescence intensity per image in each experimental condition was obtained by selecting ROI in Brightfield and applying that to the corresponding DPP-5 image, average background fluorescence intensity was subtracted and data was normalized to the average fluorescence intensity of the DMSO control. […]

A431 cells = assay: DPP-3 in A431 cells, starvation and EGF stimulation (flow cytometry, microscopy); format: cell-based, human; details: A431, starved and non-starved, 1 μM inhibitor, 5 μM DPP-3
Experimental: Cells were plated on a 10 cm dish with 10 mL of DMEM/High Glucose (10% FBS, 1% P/S, L-Glutamine, Sodium pyruvate) 36-48 hours prior to the day of experiment and maintained at 37° C., 5% CO2 so as to obtain 80-90% confluency. Cells were washed with DPBS and trypsinized with 1 mL 0.05% Trypsin. 5 mL of DMEM/High Glucose (10% FBS, L-Glutamine, Sodium pyruvate) was added and cells were spun down at 1200 rpm for 3 min. Media was discarded and cells were resuspended in 5 mL of Live Cell Imaging Solution and again spun down at 1200 rpm for 3 min. The cells pellets obtained were resuspended in 3-5 mL of Live Cell Imaging Solution and divided into 500 μL aliquots. The aliquots were treated with either 0.2% DMSO carrier or 1 μM of PalmB/ML348 or 1 μM/5 μM of ML349 inhibitor. After 30 min of incubation at room temperature, 1 μL of 2.5 mM DPP-3 in DMSO was added to each aliquot for a final concentration of 5 μM, and the solutions were mixed. After 5 min incubation at room temperature, fluorescence signal in FITC channel was measured for 10000 cells (5000 for HeLa experiments) on a LSR-Fortessa 4-15 HTS (BD digital instrument, 488 nm laser with 530/30 nm filter for FITC; BD, Franklin Lakes, N.J., United States of America). For analyzing DPP2 in HEK293T cells, the aliquots were treated with either 0.2% DMSO carrier or 2 μM of PalmB, 5 or 20 μM of ML348/ML349 and then analyzed by the protocol as mentioned above. Data was analyzed by FlowJo software version 10.0.8. For comparison of A431 starved versus non-starved, parallel 10 cm dishes of A431 cells were plated in 10 mL of DMEM (high glucose, 10% FBS, 1% P/S), and grown for 36 h. The growth media was removed, and replaced by 10 mL of either DMEM (High glucose) with 10% FBS to maintain “growth” conditions, or DMEM (High glucose) without FBS respectively for “starvation” conditions, and incubated for 14 h. After trypsinization, both plates were treated with 5 mL of DMEM (high glucose) for spinning the cells down, and further processing and analysis were performed as described above by flow cytometry.
Parallel 35 mm glass bottom dishes (D35-10-1.5-N; Cellvis, Mountain View, Calif., United States of America) of A431 cells (450,000) were plated in 2 mL of DMEM glutamax (high glucose, 10% FBS, 1% P/S), and grown for 36 h. The growth media was removed, and replaced by 1.5 mL of either DMEM (High glucose) with 10% FBS to maintain “growth” conditions, or DMEM (High glucose) without FBS respectively for “starvation” conditions, and incubated for 24 h. […] For data analysis, the average fluorescence intensity per image in each experimental condition was obtained by selecting ROIs in the brightfield image. For display, the data were normalized to the average fluorescence intensity of the control conditions. […]

| Structure (SMILES) | probe fluorescent signal in cells (HeLa cells; 1 μM probe for 20 minutes) | effect of inhibitor on depalmitoylation signal measured by DPP-3 (A431 cells) | effect of inhibitor on depalmitoylation signal measured by DPP-3 (A431 cells; listed as M348) | turn-on response of DPP-5 blocked (HeLa cells; 5 μM PalmB pretreatment, 1 μM DPP-5) |
| --- | --- | --- | --- | --- |
| CCCCCCCCCCCCCCCC(=O)SC[C@@H](C(=O)NC)N(C)C(=O)Oc1ccc2c(c1)Oc1cc(N3CCN(C(=O)CCC(=O)O)CC3)ccc1C21OC(=O)c2ccccc21 (some centres unmarked) [DPP-5] | robust intracellular fluorescent signal | – | – | – |
| O=C(CN1CCN(C(=O)c2ccco2)CC1)Nc1cc(C(F)(F)F)ccc1Cl [ML348] | – | knocks down the depalmitoylation signal | knocked down | – |
| CCCCCCCCCC[C@@H]1C(=O)O[C@H]1CCc1ccc(OC)c(OC)c1 [PalmB, palmostatin B] | – | knocked down; also recorded: knocks down the depalmitoylation signal | – | more than 95% |
